Earlier results, collected in patent US7850997B2, “Dietary compositions and methods of enhancing lean body mass and exercise performance” (priority 2007, dated 2010).

Legend:
[1] = 6 g oral L-arginine for 3 days vs placebo; 25 patients with stable coronary artery disease
[2] = after arginine 6 g/day for 10 days; 7 healthy males
[3] = oral arginine 0.5 g/10 kg for one week, versus placebo; primary or precapillary secondary pulmonary hypertension
[4] = oral L-arginine 6 g for 3 days; 22 patients with stable angina pectoris and healed myocardial infarction
[5] = compared with placebo; patients

N=C(N)NCCCC(N)C(=O)O (stereo not shown) [arginine, 2-amino-5-guanidinovaleric acid]
exercise duration [1]: significantly increased | flow-mediated vasodilation (FMV) after 4 and 6 h after oral fat load [2]: normalized | flow-mediated vasodilation (FMV) at 2 h after oral fat load [2]: significantly decreased | mean pulmonary arterial pressure [3]: significantly decreased | pulmonary vascular resistance [3]: significantly decreased | exercise capacity [4]: increased | forearm blood flow during forearm exercise [5]: significantly increased
